Where two headings read alike, the source gives them in different places.
Key:
TA98 = test: Salmonella typhimurium reverse mutation assay, plate incorporation, TA98; conditions: positive control, TA98 −S9, 50 μg/100 μL dish
Procedure: (§1) Test strains: A set of standard test strains of TA97, TA98, TA100 and TA102 were provided by the Jiangsu Provincial Center for Disease Control and Prevention, and stored at −80° C. The test bacteria were cultured in a 37° C. water bath with shaking for 24 hours and stored at 4° C.
(§2) Enrichment culture: The main plate or the frozen-preserved strain culture was inoculated into nutrient broth, and cultivated for 10 hours at 37° C. with shaking (100 times/min). The strain culture should be more than 1˜2×10^9 viable bacteria per milliliter.
(§3) According to the physicochemical properties of the test article, the Compound 2 was prepared before test: 0.1 g of Compound 2 white powder was under UV sterilization for 2 h before test, and dissolved in 10 mL of dimethyl sulfoxide (DMSO), and then diluted to the desired concentration for the use (fresh preparation). […]
(§4) Preparation of test agent solution: 0.1 mL of test agent solution was added to each dish, and the highest concentration and volume of test agent solution to be prepared were determined according to the set maximum test dose of 10 mg/mL. The amount of the test agent to be weighed was calculated when the solution was prepared. […]
(§5) Judgment and evaluation of results: The results of each test were sorted out, and the number of strains turned into colonies was expressed as (x±SD)/dish. […]

TA97 = test: Salmonella typhimurium reverse mutation assay, plate incorporation, TA97; conditions: positive control, TA97 −S9, 50 μg/100 μL dish
Procedure: as §1, §2, §3, §4, §5

TA102 = test: Salmonella typhimurium reverse mutation assay, plate incorporation, TA102; conditions: positive control, TA102 −S9, 1.0 μL/100 μL dish
Procedure: as §1, §2, §3, §4, §5

[1] = system: sows suffering from endometritis; test: Efficacy on endometritis in postpartum sows; assay type: in vivo, pig; conditions: uterine perfusion 10 mg/kg once a day for 7 days; 30 sows
Procedure: Sows suffering from endometritis in 5 different pig farms were selected, 30 cases in each farm, 150 cases in total, were randomly divided into groups, and a non-treatment control was set up, and the sick pigs in each experimental group were perfused into the uterus. Agents, the main components of the uterine perfusion for treatment groups 1-4 were Compound 1, Compound 2, Compound 3, and Compound 4, respectively, at a dose of 10 mg/kg, and the control group was given an equal volume of normal saline. The frequency of administration is once a day for 7 consecutive days.

sperm = conditions: oral once a day 5 days; for Total number of abnormal sperm / abnormal sperm: Amorphous / abnormal sperm: Banana shape / abnormal sperm: Double head / abnormal sperm: Double tail / abnormal sperm: Fat head / abnormal sperm: Fold tail / abnormal sperm: No hook: Day 35, 10000 sperm; for Number of Abnormal sperm (x ± SD) / Sperm deformity: Day 35, n = 10
Procedure: Experimental animals: 60 clean-grade healthy male ICR mice having the average weight of 18-20 g, purchased from the Comparative Medicine Center of Yangzhou University.
Reagents: Test agent, Compound 2, provided by Guangzhou Insighter Biotechnology Co., Ltd., was prepared into a suspension of the required concentration with 1.0% sodium carboxymethyl cellulose before use; the mutagenic positive control article of cyclophosphamide with the content of 99.00%; other reagents include sodium chloride, methanol, and eosin, all of analytical grade; self-prepared physiological saline; self-prepared eosin aqueous solution (2%).
The test article, Compound 2 was diluted with 1.0% sodium carboxymethyl cellulose as a solvent, and it was given by oral in different concentrations and the same volume. There is also a positive control and a negative (solvent) control. The cyclophosphamide was selected as the positive control (40 mg/kg).
Grouping of experimental animals: 60 healthy male mice were individually weighed, labeled and numbered, and they were divided into 5 groups with 12 mice in each group using a completely random method. It was ensured that 10 animals in each group survive for sampling and film making after administration.
Administration: The administration method is carried out according to GB15193.7-2003. The test group, the negative control and the positive control are all given the test article by oral once a day for 5 consecutive days. The weight of the mouse for each administration was weighed, and the volume of the test article that each mouse should administer was calculated according to the requirements of the mouse 0.2 mL/10 g b.w.
Sampling and sample preparation: The mice were sacrificed by cervical dislocation on the Day 35 after the first administration, and sampling and film making were performed. 10 mice were sampled in each dose group. The abdominal cavity was cut, the epididymis on both sides were separated and extracted, and put in a petri dish containing 2 mL of normal saline; The mice were longitudinally cut with ophthalmological scissors for 2 times, the normal saline in it was pipetted with a straw for several times, and let stand for 3 min; the tissue fragments were filtered with a 4-layer of lens cleaning paper, 1 drop of the filtrate was drawn onto the glass slide, the slide was pushed with 4 slides per mouse; the slide in the air dried naturally, and fixed with methanol for 10 minutes, and dried; stained with 2% eosin for 1 h, the dye solution was gently washed off with water, and it was dried naturally before microscopic examination.
Data collation and analysis: The number of normal sperm, the number of abnormal sperm and the number of various types of abnormal sperm were read and counted in each dose group of mice. The sperm abnormality rate (%) of mice in each dose group and the percentage (%) of various types of abnormal sperm were calculated, and the standard deviation of the sperm abnormality rate of mice was also calculated in each dose group. Calculation as follows:
The sperm abnormality rate of mice in each dose group was statistically compared with the sperm abnormality rate of mice in the negative (solvent) control. The experimental data was processed by SPSS 11.0 statistical software, and the analysis results were expressed as x±SD, and the incidence of sperm abnormalities was statistically processed according to the X^2 (α=0.05).
If the dose of the test group has caused the animal to die, while the sperm abnormality has not increased, the result can be judged to be negative.

For CN(C)c1ccc(N=NS(=O)(=O)[O-])cc1.[Na+] [Dixon, reference compound], the “reverting colonies per dish (x ± SD)” value (TA98; First) was 932.00 ± 57.17, the “reverting colonies per dish (x ± SD)” value (TA98; Second) was greater than 2000 and the “reverting colonies per dish (x ± SD)” value (TA97; First) was greater than 2000. For the same molecule, the “reverting colonies per dish (x ± SD)” value (TA97; Second) was greater than 2000.

With COS(C)(=O)=O [Methyl Methanesulfonate, methyl methanesulfonate, reference compound] the “reverting colonies per dish (x ± SD)” value (TA102; First) was 392.67 ± 12.86 and the “reverting colonies per dish (x ± SD)” value (TA102; Second) was greater than 2000.

For N=C(N/N=C/c1ccc(OCc2ccccc2)cc1)N/N=C/c1ccc(OCc2ccccc2)cc1 [Compound 3], the Cure rate [1] was 90.0%, the “Treatment effects: sows cured” value [1] was 25 sows were cured, and the “Treatment effects: sows improved in symptoms” value [1] was 2 sows improved.

In the case of COC(=O)c1ccc(/C=N/NC(=N)N/N=C/c2ccc(C(=O)OC)cc2)cc1 [Compound 4], the Cure rate [1] is reported as 100%, the “Treatment effects: sows cured” value [1] is reported as 25 sows were cured, and the “Treatment effects: sows improved in symptoms” value [1] is reported as 5 sows improved.

With isopropoxyphenylguanidine [Compound 2] the “Total number of abnormal sperm” value (sperm; high 500 mg/kg) was 224, the “abnormal sperm: Amorphous” value (sperm; high 500 mg/kg) was 106 and the “abnormal sperm: Banana shape” value (sperm; high 500 mg/kg) was 22. For the same molecule, the “abnormal sperm: Double head” value (sperm; high 500 mg/kg) was 5, the “abnormal sperm: Double tail” value (sperm; high 500 mg/kg) was 9 and the “abnormal sperm: Fat head” value (sperm; high 500 mg/kg) was 10. The “abnormal sperm: Fold tail” value (sperm; high 500 mg/kg) was 9, the “abnormal sperm: No hook” value (sperm; high 500 mg/kg) was 63 and the “Number of Abnormal sperm (x ± SD)” value (sperm; high 500 mg/kg) was 22.40 ± 1.84. For the same molecule, the Sperm deformity (sperm; high 500 mg/kg) was 2.17 ± 0.16%, the “Total number of abnormal sperm” value (sperm; low 125 mg/kg) was 223 and the “abnormal sperm: Amorphous” value (sperm; low 125 mg/kg) was 118. The “abnormal sperm: Banana shape” value (sperm; low 125 mg/kg) was 16, the “abnormal sperm: Double head” value (sperm; low 125 mg/kg) was 4 and the “abnormal sperm: Double tail” value (sperm; low 125 mg/kg) was 6. The “abnormal sperm: Fat head” value (sperm; low 125 mg/kg) was 5, the “abnormal sperm: Fold tail” value (sperm; low 125 mg/kg) was 5 and the “abnormal sperm: No hook” value (sperm; low 125 mg/kg) was 69. For the same molecule, the “Number of Abnormal sperm (x ± SD)” value (sperm; low 125 mg/kg) was 22.30 ± 1.70, the Sperm deformity (sperm; low 125 mg/kg) was 2.15 ± 0.16% and the “Total number of abnormal sperm” value (sperm; medium 250 mg/kg) was 221. The “abnormal sperm: Amorphous” value (sperm; medium 250 mg/kg) was 111, the “abnormal sperm: Banana shape” value (sperm; medium 250 mg/kg) was 21 and the “abnormal sperm: Double head” value (sperm; medium 250 mg/kg) was 5. For the same molecule, the “abnormal sperm: Double tail” value (sperm; medium 250 mg/kg) was 7, the “abnormal sperm: Fat head” value (sperm; medium 250 mg/kg) was 7 and the “abnormal sperm: Fold tail” value (sperm; medium 250 mg/kg) was 5. The “abnormal sperm: No hook” value (sperm; medium 250 mg/kg) was 65, the “Number of Abnormal sperm (x ± SD)” value (sperm; medium 250 mg/kg) was 22.10 ± 1.37 and the Sperm deformity (sperm; medium 250 mg/kg) was 2.14 ± 0.14%.

For N=C(N/N=C/c1ccc([N+](=O)[O-])cc1)N/N=C/c1ccc([N+](=O)[O-])cc1 [Compound 1], the Cure rate [1] was 93.3%, the “Treatment effects: sows cured” value [1] was 27 sows were cured, and the “Treatment effects: sows improved in symptoms” value [1] was 1 sow improved sows.
